Experimental data taken from article PMC4658394 (ChemMedChem, 2015).
pIC50: −log10 of the molar value. One block for each molecule: values may come before it.

Experiments:
MMP-12 = MMP-12 (Homo sapiens, UniProt P39900); experiment: MMP-12 fluorogenic substrate assay with competing metalloprotein MT; conditions: MMP-12 0.68 nM
MMP-2 = target: T1, MMP-2 (Homo sapiens, UniProt P08253); experiment: MMP-2 fluorogenic substrate assay with competing metalloproteins; type: biochemical; conditions: MMP-2 2.7 nM
T1 sequence (P08253 110-660): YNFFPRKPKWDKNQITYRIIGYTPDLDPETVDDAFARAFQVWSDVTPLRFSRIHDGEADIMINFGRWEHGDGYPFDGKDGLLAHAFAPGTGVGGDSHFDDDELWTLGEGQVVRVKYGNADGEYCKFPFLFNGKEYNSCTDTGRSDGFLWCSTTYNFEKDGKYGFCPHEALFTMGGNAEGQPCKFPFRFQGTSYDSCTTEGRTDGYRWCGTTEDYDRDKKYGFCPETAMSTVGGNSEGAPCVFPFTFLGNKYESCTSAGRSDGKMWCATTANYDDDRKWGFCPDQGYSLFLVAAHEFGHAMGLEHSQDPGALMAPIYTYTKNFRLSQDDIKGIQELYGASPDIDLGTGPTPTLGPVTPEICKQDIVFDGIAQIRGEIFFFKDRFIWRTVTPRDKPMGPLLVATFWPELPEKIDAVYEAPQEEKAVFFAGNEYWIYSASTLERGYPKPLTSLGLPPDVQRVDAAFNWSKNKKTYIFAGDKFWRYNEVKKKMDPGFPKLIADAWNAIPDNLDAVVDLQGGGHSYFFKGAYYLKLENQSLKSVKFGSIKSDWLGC

HDAC-6 = target: T2, HDAC-6 (Homo sapiens, UniProt Q9UBN7); experiment: HDAC-6 fluorogenic assay with competing metalloprotein MT; type: biochemical; conditions: 22 nM SAHA, HDAC-6 0.16 μM, various concentrations of MT
T2 sequence (Q9UBN7 1-1215): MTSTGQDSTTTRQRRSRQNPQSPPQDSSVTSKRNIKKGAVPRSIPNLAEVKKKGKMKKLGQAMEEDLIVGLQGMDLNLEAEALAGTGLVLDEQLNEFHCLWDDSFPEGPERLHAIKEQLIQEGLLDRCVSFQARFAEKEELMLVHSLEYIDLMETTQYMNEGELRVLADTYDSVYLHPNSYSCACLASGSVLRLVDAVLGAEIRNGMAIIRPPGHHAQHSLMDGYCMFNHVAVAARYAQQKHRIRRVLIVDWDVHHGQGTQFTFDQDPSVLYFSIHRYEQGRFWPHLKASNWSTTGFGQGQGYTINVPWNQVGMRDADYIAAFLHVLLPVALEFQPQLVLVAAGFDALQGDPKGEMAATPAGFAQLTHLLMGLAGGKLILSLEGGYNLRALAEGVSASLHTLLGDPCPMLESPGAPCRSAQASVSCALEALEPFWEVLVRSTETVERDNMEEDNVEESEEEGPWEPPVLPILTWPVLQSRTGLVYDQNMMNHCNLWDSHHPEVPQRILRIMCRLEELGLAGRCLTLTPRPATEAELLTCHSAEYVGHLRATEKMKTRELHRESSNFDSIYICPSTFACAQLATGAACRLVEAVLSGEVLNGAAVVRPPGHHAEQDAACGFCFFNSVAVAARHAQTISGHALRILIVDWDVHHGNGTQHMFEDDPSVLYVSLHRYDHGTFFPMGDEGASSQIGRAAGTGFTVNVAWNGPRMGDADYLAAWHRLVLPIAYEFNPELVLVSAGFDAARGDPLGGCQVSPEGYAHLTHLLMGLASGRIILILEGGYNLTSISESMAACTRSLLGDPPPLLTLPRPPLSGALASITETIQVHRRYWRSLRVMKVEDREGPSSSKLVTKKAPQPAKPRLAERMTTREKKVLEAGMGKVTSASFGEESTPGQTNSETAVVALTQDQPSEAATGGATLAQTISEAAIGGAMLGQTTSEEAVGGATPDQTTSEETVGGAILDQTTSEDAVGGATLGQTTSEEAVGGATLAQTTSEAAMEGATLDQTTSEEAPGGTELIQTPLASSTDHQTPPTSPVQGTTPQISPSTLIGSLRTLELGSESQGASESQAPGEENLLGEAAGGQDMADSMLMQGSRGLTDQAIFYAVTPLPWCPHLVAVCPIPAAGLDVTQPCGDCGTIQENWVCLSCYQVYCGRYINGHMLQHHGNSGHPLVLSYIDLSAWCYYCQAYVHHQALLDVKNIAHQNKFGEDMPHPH

HDAC-1 = HDAC-1 (Homo sapiens, UniProt Q13547); experiment: HDAC-1 fluorogenic assay with competing metalloprotein MT; type: biochemical; conditions: 53 nM SAHA, HDAC-1 0.25 μM, various concentrations of MT
HDAC-1, sequence (Q13547 whole entry): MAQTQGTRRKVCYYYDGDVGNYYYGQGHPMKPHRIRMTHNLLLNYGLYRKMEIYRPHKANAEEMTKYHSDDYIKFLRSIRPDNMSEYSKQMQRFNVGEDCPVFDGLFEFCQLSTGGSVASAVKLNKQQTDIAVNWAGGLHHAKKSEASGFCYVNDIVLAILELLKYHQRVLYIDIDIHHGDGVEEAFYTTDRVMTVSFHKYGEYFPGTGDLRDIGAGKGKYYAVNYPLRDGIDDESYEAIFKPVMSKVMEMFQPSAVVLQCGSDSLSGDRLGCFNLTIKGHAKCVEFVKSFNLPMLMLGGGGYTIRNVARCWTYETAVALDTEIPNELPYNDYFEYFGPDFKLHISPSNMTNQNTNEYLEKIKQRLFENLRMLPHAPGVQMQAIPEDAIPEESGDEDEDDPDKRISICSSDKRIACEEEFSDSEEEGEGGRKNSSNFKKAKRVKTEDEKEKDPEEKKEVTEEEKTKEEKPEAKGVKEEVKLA

MMP-12, sequence (P39900 106-470): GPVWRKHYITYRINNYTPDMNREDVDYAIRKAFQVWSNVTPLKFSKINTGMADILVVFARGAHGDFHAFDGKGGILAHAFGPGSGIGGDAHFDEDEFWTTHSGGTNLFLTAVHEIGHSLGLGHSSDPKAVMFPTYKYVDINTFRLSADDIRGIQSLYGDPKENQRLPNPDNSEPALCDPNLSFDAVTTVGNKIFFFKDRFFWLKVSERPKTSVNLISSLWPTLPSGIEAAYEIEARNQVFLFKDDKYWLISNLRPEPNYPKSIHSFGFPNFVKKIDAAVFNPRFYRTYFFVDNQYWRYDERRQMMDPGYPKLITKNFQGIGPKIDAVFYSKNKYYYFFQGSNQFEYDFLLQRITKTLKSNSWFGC

effect of large excess of MT on activity against MMP-12 (MMP-12; 30 nM inhibitor, up to 9 μM MT (300 equiv over inhibitor)): did not perturb the activity
pIC50 (MMP-12; read-out: IC50 against MMP-12): 7.52
Structure (SMILES): O=C(NCc1ccc(-c2ccccc2)cc1)c1cccc(=O)n1O [1,2-HOPO-2]

MMP-2 inhibition in the presence of combinations of competing proteins (MMP-2; CGS 3 nM, MT, Mb, Tf, hCAII combinations 400 nM each): no drop in inhibition
specificity for MMP-2 in the presence of excess MT (MMP-2; CGS 3 nM or NSA 30 nM, MT up to 50 equiv over MPi): maintain their specificity
Structure (SMILES): COc1ccc(S(=O)(=O)N(Cc2cccnc2)[C@@H](C(=O)NO)C(C)C)cc1 [CGS]
effect of Mb, Tf or hCAII as competing protein on MMP-2 inhibition (MMP-2; NSA 30 nM or CGS 3 nM, up to 166 equiv over CGS, up to 50 equiv over NSA): not titrating the MPi away from the MMP-2 target

Structure (SMILES): O=C(CCCCCCC(=O)Nc1ccccc1)NO [SAHA, suberolylanilide hydroxamic acid]
change in SAHA activity against HDAC-6 with increasing MT (HDAC-6): no substantial decrease
change in SAHA activity against HDAC-1 with increasing MT (HDAC-1): no substantial decrease
